Test results as given in PubChem BioAssay (NCI).
Where “and” joins values, the source holds several entries; their conditions need not be identical. Equal entries are not always repeated.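 A five-concentration, 48-hour dose response in 96-well plates underlies each endpoint, interpolated linearly between surrounding concentrations. GI50 marks 50% less growth. TGI denotes the concentration required for complete inhibition of growth.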 Calls of active or inactive are those of the source. No stated cut-off is given here; in the data, active means GI50 below about 0.43 µM; inactive means the rest.

Key:
Test in all cases: NCI tumour cell line growth inhibition, 48 h
SF-268 CNS = tested on: SF-268 CNS
HCT-116 colon = tested on: HCT-116 colon
MALME-3M melanoma = tested on: MALME-3M melanoma
XF 498 CNS = tested on: XF 498 CNS
HCT-15 colon = tested on: HCT-15 colon
M14 melanoma = tested on: M14 melanoma
T-47D breast = tested on: T-47D breast
MDA-MB-435 = tested on: MDA-MB-435
BT-549 breast = tested on: BT-549 breast

| SMILES | TGI (SF-268 CNS) | TGI (HCT-116 colon) | TGI (MALME-3M melanoma) | TGI (XF 498 CNS) | TGI (HCT-15 colon) | TGI (M14 melanoma) | TGI (T-47D breast) | TGI (MDA-MB-435) | TGI (BT-549 breast) | GI50 (SF-268 CNS) | GI50 (HCT-116 colon) | GI50 (MALME-3M melanoma) | outcome (XF 498 CNS) | GI50 (HCT-15 colon) | GI50 (XF 498 CNS) | GI50 (M14 melanoma) | GI50 (T-47D breast) | GI50 (MDA-MB-435) | GI50 (BT-549 breast) |
| --- | --- | --- | --- | --- | --- | --- | --- | --- | --- | --- | --- | --- | --- | --- | --- | --- | --- | --- | --- |
| O=c1nc(-c2ccccc2)c2c3c(cccn13)CCC2 | > 100 µM | > 100 µM | > 100 µM | > 100 µM | > 100 µM | > 100 µM |  |  |  |  |  |  |  |  |  |  |  |  |  |
| CCc1ccccc1NC(=O)C(=O)C(C(=O)c1ccc(OC)cc1)c1ccc(OC)cc1 (configuration not stated) | > 100 µM | > 100 µM | > 100 µM | > 100 µM | > 100 µM | > 100 µM |  |  |  |  |  |  |  |  |  |  |  |  |  |
| COc1ccc(C2C(Cl)C(=O)N2n2cnc3ccccc3c2=O)cc1OC (configuration not stated) | > 100 µM | > 100 µM | > 100 µM | > 100 µM | > 100 µM | > 100 µM |  |  |  |  |  |  |  |  |  |  |  |  |  |
| COC(=O)c1nc(NN)[nH]c(=O)c1CCCCCc1c(C(=O)OC)[nH]c(NN)cc1=O | > 100 µM | > 100 µM | > 100 µM | > 100 µM | > 100 µM | > 100 µM |  |  |  |  |  |  |  |  |  |  |  |  |  |
| O=C1[C@@H](c2ccc(Cl)cc2)[C@H]2CC=C[C@H]2N1O | > 100 µM |  | > 100 µM | > 100 µM | > 100 µM | > 100 µM |  |  |  |  |  |  |  |  |  |  |  |  |  |
| COC(=O)C1=CCON(c2ccccc2)C1c1ccccc1 (configuration not stated) | > 100 µM |  | > 100 µM | > 100 µM | > 100 µM | > 100 µM |  |  |  |  |  |  |  |  |  |  |  |  |  |
| CC1(C)O[C@H]2OC3CCC(=O)CC3(O)[C@H]2O1 (some centres not stated) | > 100 µM | > 100 µM | > 100 µM | 97.2 µM | > 100 µM | > 100 µM | > 100 µM | > 100 µM | > 100 µM |  |  |  |  |  |  |  |  |  |  |
| CSc1nc2c(c(O)c(C)c(=O)n2C2OC(COC(C)=O)C(OC(C)=O)C(OC(C)=O)C2OC(C)=O)c(=O)n1C (configuration not stated) | > 100 µM | > 100 µM | > 100 µM | > 100 µM | > 100 µM | > 100 µM |  |  |  |  |  |  |  |  |  |  |  |  |  |
| CSc1ccc(/C=C2\CNC/C(=C\c3ccc(SC)cc3)C2=O)cc1 | > 141 µM and 150 µg/mL | > 371 µM and 150 µg/mL | > 371 µM and 150 µg/mL | 16.8 µM | > 371 µM and 150 µg/mL | > 371 µM | > 371 µM | > 371 µM | > 371 µM | 44 µg/mL | 31.4 µg/mL | 150 µg/mL | inactive | 112 µg/mL |  |  |  |  |  |
| CC(C)N(C(=O)C12C3C4C1C1C2C3C41C(O)C(C)(C)C)C(C)C (configuration not stated) | > 50 µM | > 50 µM | > 50 µM | > 50 µM | > 50 µM | > 50 µM |  |  |  |  |  |  |  |  |  |  |  |  |  |
| CCC1(Br)C(=O)NC(=O)N(C2CC(O)C(CO)O2)C1N=[N+]=[N-] (configuration not stated) | > 100 µM |  | > 100 µM | > 100 µM |  | > 100 µM |  |  |  |  |  |  |  |  |  |  |  |  |  |
| COc1ccc([C@H]2CC(=O)N3CCCC3N2)cc1 (some centres not stated) | > 100 µM | > 100 µM | > 100 µM | > 100 µM | > 100 µM | > 100 µM |  |  |  |  |  |  |  |  |  |  |  |  |  |
| Cc1cc(C)c2c(c1)CN1CN2Cc2cc(C)cc(C)c21 | > 100 µM | 37.2 µM |  | 33.4 µM |  | 51.8 µM |  |  |  |  |  |  |  |  |  |  |  |  |  |
| Nc1nc2c(ncn2Cc2ccccc2CCO)c(=O)[nH]1 | > 100 µM |  | > 100 µM | > 100 µM | > 100 µM | > 100 µM |  |  |  |  |  |  |  |  |  |  |  |  |  |
| CC1(C)C(=O)C(O)=CC2C1=CCC1C2(C)C(=O)CC2(C)C(C(C)(O)C(=O)CC(O)C(C)(C)O)C(O)CC12C (configuration not stated) | 9.76 µM | 33.7 µM | 12.1 µM | 6.34 µM | > 88.7 µM | 23.8 µM |  |  |  |  |  |  |  |  |  |  |  |  |  |
| CC12CC3(C)CC(C)(C1)CC(N=[N+]=[N-])(C2)C3 | > 100 µM | > 100 µM | > 100 µM | > 100 µM |  | > 100 µM |  |  |  |  |  |  |  |  |  |  |  |  |  |
| O=C(c1ccccc1)c1c(CC(O)c2cccnc2)n(C(=O)c2ccccc2)c2ccccc12 (configuration not stated) | 59.4 µM | 30.8 µM | 43.3 µM | 27.1 µM | 60.3 µM | 33.5 µM |  |  |  |  |  |  |  |  |  |  |  |  |  |
| O=C1c2ccccc2N2OC3(N4CCCC4)CCCC3C12c1ccccc1 (configuration not stated) | > 100 µM | > 100 µM | > 100 µM | > 100 µM | > 100 µM | > 100 µM |  |  |  |  |  |  |  |  |  |  |  |  |  |
| CC(C)N(C(C)C)[PH+]1O[PH+](N(C(C)C)C(C)C)O[PH+](N(C(C)C)C(C)C)O[PH+](N(C(C)C)C(C)C)O[PH+](N(C(C)C)C(C)C)O1.[C-]#[O+].[C-]#[O+].[C-]#[O+].[C-]#[O+].[C-]#[O+].[C-]#[O+].[C-]#[O+].[Cr].[Cr] (configuration not stated) | > 100 µM | > 100 µM | > 100 µM | > 100 µM | > 100 µM | > 100 µM |  |  |  | > 100 µM | > 100 µM | > 100 µM |  | > 100 µM | > 100 µM | > 100 µM |  |  |  |
| COC1/C=C/OC2(C)Oc3c(C)c(O)c4c(c3C2=O)C(=O)C=C(NC(=O)/C(C)=C\C=C\C(C)C(OC=O)C(C)C(O)C(C)C(OC(C)=O)C1C)C4=O (configuration not stated) | 37.1 µM | 14.1 µM | 28.7 µM | 12.8 µM | 22.7 µM | 19.5 µM | 11.6 µM | 33.3 µM | 24 µM |  |  |  |  |  |  |  |  |  |  |
| COC(=O)c1ccc2c(c1)C(NC(C)=O)CCc1cc(OC)c(OC)c(OC)c1-2 (configuration not stated) | 77.9 µM | 0.391 µM | > 100 µM | > 100 µM | > 44.3 µM | > 31.6 µM | > 100 µM | < 0.01 µM | 78.3 µM |  |  |  |  |  |  |  |  |  |  |
| O=[N+]([O-])c1ccc(N=Nc2c(O)[nH]c3ccc([N+](=O)[O-])cc23)cc1 | 38 µM |  |  | 32.3 µM | > 100 µM | 38 µM |  |  |  |  |  |  |  |  |  |  |  |  |  |
| COc1ccc(C(C2=C(C)C(=O)c3ccccc3C2=O)c2ccc(C(C)C)cc(=O)c2O)cc1 (configuration not stated) | 23 µM | 14.7 µM | > 100 µM | 34.1 µM | 32.2 µM | 6.24 µM |  |  |  |  |  |  |  |  |  |  |  |  |  |
| CC(=O)N(CCN)CCN | > 100 µM | > 10 µM |  | > 100 µM | > 100 µM | > 10 µM |  |  |  |  |  |  |  |  |  |  |  |  |  |
| Cc1nc2c(n1CC(C)(C)C)C(=O)c1ccccc1C2=O | > 100 µM | > 100 µM | > 100 µM | > 100 µM | > 100 µM | > 100 µM |  |  |  |  |  |  |  |  |  |  |  |  |  |
| Fc1cccc(Cl)c1C1SCc2nc3ccccc3n21 (configuration not stated) | > 100 µM | 55.1 µM | 45.8 µM | 66.1 µM | > 100 µM | > 100 µM |  |  |  |  |  |  |  |  |  |  |  |  |  |
| CNC(=O)Nc1ccc(-c2nc(N3CCOCC3)nc3c2cnn3C2CCOCC2)cc1 | > 51.3 µM | > 100 µM | 0.44 µM |  | > 100 µM |  | 0.341 µM | 0.821 µM | 2.08 µM | 0.284 µM | 0.422 µM | 0.0509 µM |  | 0.26 µM |  | 0.233 µM | 0.0419 µM | 0.168 µM | 0.132 µM |
| Cc1cc(Cl)ccc1NC(=O)C(=O)Cc1nc2ccc(C(=O)c3ccccc3)cc2[nH]c1=O | > 100 µM | > 100 µM | > 100 µM | > 100 µM | > 100 µM | > 100 µM |  |  |  |  |  |  |  |  |  |  |  |  |  |
| CSc1ccc(C2=Nn3c(nnc3-c3ccc(F)c(Cl)c3)SC2)cc1 | > 100 µM | 23.4 µM | 10.9 µM |  | > 100 µM | 28.4 µM | > 100 µM | 5.21 µM | 50.5 µM | 75.7 µM | 9.85 µM | 2.01 µM |  | 10.1 µM |  | 6.73 µM | 71 µM | 1.5 µM | 12.8 µM |
| COc1cc(C2c3cc4c(cc3[C@@H](Nc3ccc(N(C)C)cc3)[C@H]3COC(=O)C23)OCO4)cc(OC)c1O (some centres not stated) | 4.32 µM and 16.6 µM | 11.7 µM and 20.2 µM | 12.1 µM and 15 µM | 10.9 µM and 13.3 µM | 8.16 µM and 11.3 µM | 8.61 µM and 16.2 µM |  |  |  | 3.13 µM | 5.52 µM | 1.6 µM |  | 1.82 µM | 2.27 µM | 1.44 µM |  |  |  |
